From patent US8768431B2, “Systems and methods for tissue imaging” (The Regents of the University of Michigan, priority 2007, dated 2014)

Experiments:
Format in all cases: in vivo, human
[1] = system: metastatic PCa osseous lesions; assay: fDM and mean ADC diffusion MRI of osseous lesions in a metastatic PCa patient; settings: for mean ADC, femoral head lesion: baseline 74.5×10^−6; for mean ADC, sacral lesion: baseline 110.8×10^−6; for mean ADC, ilium lesion: baseline 78.0×10^−6
Protocol: (§1) Patient Information A hormone-naïve person with newly diagnosed metastatic PCa was consented and was enrolled into the study. They were initiated on combined androgen blockade with bicalutamide and goserelin acetate. Magnetic resonance imaging scans were acquired at weeks 0 (baseline), 2, and 8 following treatment initiation which were used to generate the Functional Diffusion Maps at the 2 and 8 week time intervals. Due to pain and pathologic fracture, the patient was also treated with palliative radiation therapy encompassing the sacrum and ilium at 2 weeks post initiation of androgen deprivation therapy.
(§2) Magnetic Resonance Imaging Magnetic resonance imaging (MRI) examinations including diffusion-weighted and standard anatomic sequences were performed before and 2 weeks after initiation of therapy. MR imaging was performed on a 3-T scanner (Achieva model; Philips Medical Systems, Bothell, Wash.) using a quadrature body coil for transmission and a six-channel cardiac coil for reception. Standard sequences for depiction of anatomy and tumor extent included axial proton density (repetition time [TR]/echo time [TE]=2700/30 msec, two averages) turbo spin-echo and axial T2-weighted turbo spin-echo (TR/TE=7800/60 msec, two averages) with fat suppression through a short inversion time (TI=200 msec). Geometry for these sequences was as follows: field of view, 281 mm right/left by 200 mm anterior/posterior; thirty-eight 4-mm sections with a 1-mm gap; 256—232 acquisition matrix for proton density; and 248 —165 for T2-weighted scans. Diffusion-weighted scans were acquired using fat-suppressed, single-shot, spinecho, echo-planar imaging to reduce motion artifact and parallel imaging (SENSE factor=2) to reduce spatial distortion. Geometry of the diffusion-weighted scans was as follows: 350 mm right/left by 302 mm anterior/posterior; thirty 5-mm sections with a 1-mm gap; 200—172 acquisition matrix; TR/TE=2000/58 msec; and 8 averages for low (b=0 sec/mm2) and 16 averages for high (b=800 sec/mm2) diffusion-sensitivity scans. Apparent diffusion coefficient (ADC) maps were calculated in the routine manner given by the logarithm of the ratio of low-b and high-b images, then scaled by the inverse of b-value difference.
Diffusion Analysis Lesions in MR images acquired at weeks 2 and 8 were coregistered to their corresponding pretreatment MR images using an automatic algorithm based on maximizing mutual information. Registration was accomplished for each individual tumor located in the sacrum, ilium, and femoral head regions after the images were cropped to localize the registration to a limited region-of-interest (ROI) containing a single lesion. Lesions were manually contoured by a radiologist who defined the ROI by inspection of all available image data. Diffusion-average data were generated for weeks 0, 2 and 8 using the ROI contours of each of the three lesions and the mean change in diffusion values were calculated. Computation of fDMs for each lesion at weeks 2 and 8 was accomplished by comparison of voxels within the tumor at weeks 2 and 8 with the pretreatment values (week 0) as previously described (see, e.g., Moffat B A, et al., (2005) Proc Natl Acad Sci USA 102 (15), 5524-5529; Hamstra D A, et al., (2005) Proc Natl Acad Sci USA 102 (46), 16759-16764; each herein incorporated by reference in their entireties) using MIAMI Fuse (University of Michigan, Ann Arbor, Mich.) (see, e.g., Meyer C R, et al., (1997) Med Image Anal 1 (3), 195-206; herein incorporated by reference in its entirety). The tumor was segmented into three different categories wherein the red voxels represent regions within the tumor where ADC values increased (>[…]), the blue voxels represent a decreased ADC (<[…]), and the green regions represent tumor diffusion values that were within these thresholds (e.g., unchanged). […]

[2] = system: metastatic PCa osseous lesions; assay: Tumor volume by T2-weighted MRI in a metastatic PCa patient; settings: for Tumor volume, Ilium: pretreatment 2.34; for Tumor volume, Femoral Head: pretreatment 52.97; for Tumor volume, Sacrum: pretreatment 68.29
Protocol: as §1, §2
At the time of initial diagnosis, the patient underwent Tc-99 m MDP BS to ascertain the extent of skeletal involvement. […] After receiving androgen deprivation therapy for 7 weeks, increased sclerosis was observed by CT (FIG. 9B, arrow). […] Further characterization of the lesions was achieved by MRI. […] Tumor volumes were quantified using ROI analysis of each of the three tumors evaluated using T2-weighted MR images at weeks 0, 2, and 8 post-treatment initiation. […] Overall, tumor volume measurements were unable to detect significant perturbations in tumor size in the 8-week timeframe following treatment initiation.

[3] = system: Prostate-specific antigen; assay: Serum prostate-specific antigen levels in a metastatic PCa patient; settings: week 0 10.7 ng/ml
Protocol: as §1
Clinical Correlates Serum samples were obtained at weeks 0 (baseline), 2, and 8 following treatment initiation. Prostate-specific antigen levels were quantified and expressed in […] of plasma.

[4] = 8 weeks posttreatment, palliative radiation at 2 weeks
[5] = 8 weeks, palliative radiation at 2 weeks
[6] = Week 3 (so in the source), palliative radiation at 2 weeks

## bicalutamide and goserelin acetate
[1]; 2 weeks
  mean percentage change from baseline of mean ADC, three lesions: −0.7±4.7%
  mean ADC, femoral head lesion: 77.8×10^−6 mm^2/sec
  mean ADC, sacral lesion: 99.8×10^−6 mm^2/sec
[1]; 2 weeks post-therapy (FIG. 12 legend)
  decrease of mean ADC with respect to pre-therapy baseline, three lesions: 0.7±4.8%
[1]; 2 weeks posttreatment
  fDM, tumor volume with increased ADC, ilium lesion: 24.5%
  fDM, tumor volume with increased ADC, sacral lesion: 26.4%
[1]; 2 weeks vs baseline
  decrease in mean ADC, sacral lesion: ~10%
[1]; 8 weeks
  mean percentage change (increase) from baseline of mean ADC, three lesions: 8.3±4.3%
  mean ADC, femoral head lesion: 76.8×10^−6 mm^2/sec
[1]; 8 weeks posttreatment
  fDM, tumor volume with increased ADC, femoral head lesion: 36.4%
[1]; [4]
  fDM, tumor volume with increased ADC, ilium lesion: 47.1%
  fDM, tumor volume with increased ADC, sacral lesion: 29.0%
[1]; 8 weeks vs baseline
  increase in mean ADC above baseline, sacral lesion: ~5%
  increase in mean ADC, ilium lesion: 16.7%
[1]; [5]
  mean ADC, ilium lesion: 91.1×10^−6 mm^2/sec
  mean ADC, sacral lesion: 116.2×10^−6 mm^2/sec
[1]; week 2
  average fDM percent of tumor volume with increased diffusion, three lesions: 24±1.6%
  mean ADC, ilium lesion: 80.7×10^−6 mm^2/sec
[1]; week 2 posttreatment
  fDM, volume with significant increase in ADC, femoral head lesion: 21.1%
[1]; week 8
  average fDM percent of tumor volume with increased diffusion, three lesions: 38±5.2%
[2]; Week 2
  Tumor volume, Ilium: 2.76 cm^3
  Tumor volume, Femoral Head: 51.52 cm^3
  Tumor volume, Sacrum: 69.46 cm^3
[2]; [6]
  Tumor volume, Ilium: 2.56 cm^3
  Tumor volume, Sacrum: 72.21 cm^3
[2]; Week 3 (so in the source)
  Tumor volume, Femoral Head: 51.35 cm^3
[3]; week 2 posttreatment
  PSA level: 1.3 ng/mL
[3]; week 8 posttreatment
  PSA level: 0.3 ng/mL
